{"source": "patent US20210121438A1", "about": "“METHODS FOR TREATING OR PREVENTING CONFORMATION DISEASES AND METHODS FOR DRUG SCREENING” (GARAGE BRAIN SCIENCE CO., LTD, priority 2018, published 2021)", "type_in_all_cases": "cell-based", "key": {"[1]": {"system": "GFP-TDP-43-IIPLD inclusion-expressing 293T cells", "assay": "TDP-43-IIPLD misfolded aggregates in transfected 293T cells (microscopy)", "experimental": "Cell Culture and Drug Treatment: 293T cells were used throughout the experimental studies. 293T cells were grown in Dulbecco's modified Eagle's medium (DMEM)/F12, which was supplemented with 10% fetal bovine serum, 1% penicillin/streptomycin and 1% L-glutamate. Primary cultures of rat hippocampal neurons were prepared from embryonic day 17 rat embryos as previously described by (Wang et al, TDP-43, the signature protein of FTLD-U, is a neuronal activity-responsive factor. J. Neurochem. 105, 79T-806 (2008)). All procedures for handling the rat were carried out in accordance with the guidelines approved by the Institutional Animal Care and Utilization Committee, Academia Sinica. Hippocampal cells were plated on poly-1-lysine-coated coverslides at low density (10,000 cells per cm2) and cultured in the neurobasal medium/B27 (Invitrogen). The 293T cells were transfected using the calcium phosphate protocol according to the manufacturer's instructions and as previously described by Wang et al. (Wang et al., ProcNatlAcadSci USA. 99, 13583-13588 (2002). All of the plasmid constructs were described in Wang et al., Nature Communication, 2012). 293T cells (1×10^5) were seeded in each well of a six-well plate and incubated overnight in a 37° C. incubator with 5% CO2. To determine the effects of off-pathway stabilizers on the reduction of pathological-like aggregates, the cells were treated with baicalein and EGCG for 12, 24, or 48 h with the indicated concentrations (25 or 50 μM).\nGFP-TDP-43 pathological-like (GFP-TDP-43-IIPLD) inclusion-expressing 293T cells were treated with or without 50 μM baicalein for 12 h following microscopic analysis and Western blotting validation. […] (FIG. 2c)."}, "[2]": {"system": "TDP-43-mediated CFTR exon 9 skipping", "assay": "Alternative splicing assay (in vivo splicing, CFTR minigene)", "details": "EGCG", "experimental": "Alternative Splicing Assay: TDP-43-mediated CFTR exon 9 skipping assays were performed as previously described. Briefly, cells were cotransfected with TDP-43 plasmid, hCF-(TG)13(T)5 minigenes and the indicated plasmids, including VCP/p97 wt, VCP/p97 QQ, HSPB1, lamin A or progeria, or HSPB1 siRNA. Total RNA of transfectanted cells was isolated by TRIzol reagent (Invitrogen), and RT-PCR was carried out by Superscript III (Invitrogen) using specific primers to amplify exons 8-10 of CFTR according to the manufacturer's protocol. The relative amounts of cDNA were validated on 1.3% agarose gels. […]"}, "TDP-43 polymers": {"target": "T1, TDP-43 polymers (Homo sapiens, UniProt Q13148)", "T1 construct": "endogenous in cells; host or cells: 293T", "assay": "Western blotting of TDP-43 polymers in nuclear, cytosolic and urea fractions", "details": "EGCG-treated cells", "experimental": "Solubility Assay of TDP-43 and p53: Cells with or without transfection of TDP-43-FL or TDP-43-Q303P were lysed with RIPA buffer (50 mM Tris, 150 mM NaCl, 1 mM EDTA, 1% NP-40, pH 7.4), and the lysate was further fractionated by centrifugation at 16,000 g for 5 min at 4° C. The insoluble pellets were then dissolved in 8 M urea/50 mM Tris (pH 8.0). The proteins were identified by Western blotting using a polyclonal TDP-43 antibody or a monoclonal p53 antibody.\nTDP-43 proteinopathies in FTLD/ALS with the VCP/97 mutation R155H have been characterized. The VCP/97 mutation R155H alters the functions of VCP/97, redistributes TDP-43 to the cytosol, and leads to form-insoluble aggregates of TDP-43."}, "[3]": {"system": "p53 aggregates in 293T cells", "assay": "p53 aggregates in 293T cells / p53 strains (immunofluorescence with p53 antibody)", "experimental": "Immunohistochemistry: Fluorescence staining was performed as described previously (Wang et al., 2012). Cells were transfected with or without plasmids or siRNAs and grown for 24 to 48 hr. Cells were fixed with 3.7% paraformaldehyde in PBS at RT for 15 min and then permeabilized with 0.1% Triton X-100. The fixed cells were incubated with primary antibodies at RT for 2 hr followed by incubation with Cy2- or Cy3-labeled secondary antibodies (Molecular Probes). Slides were mounted using Vectashield DAPI H-1200 (Vector). Cellular fluorescence images were collected using an LSM710 META laser-scanning confocal microscope (Zeiss).\nWe observed a striking degree of heterogeneity among p53 aggregates in the cytosol of 293T cells by immunofluorescence with a p53 antibody, including long fibers (5-10 μm), short fibers (1.6-3.2 μm) and punctate aggregates (0.5-1 μm in diameter) (FIG. 16a, arrows). The length of the p53 fibers and p53 aggregates were analyzed (FIG. 16b). […] To determine whether these heterogeneous p53 amyloid patterns are inherited or are random conversions, we subcultured and isolated single colonies from heterogeneous pools of cells. […] We obtained four phenotypes shown in FIG. 16a, including long and short fibers, puncta, and diffuse nuclear staining, and these phenotypes were stably propagated (FIG. 16e). We termed these p53 phenotypes of the isolated strains as follows: p53 [L] (Long fibers), p53 [S] (Short fibers), p53 [P] (Puncta) and p53-NVA (No Visible Aggregates).\nAdditionally, we treated 293T cells with an Aβ amyloid disassembling agent, baicalein, following immunofluorescence staining with anti-p53 antibodies."}, "four p53 strains": {"system": "four p53 strains", "assay": "Cell viability of the four p53 strains under stress (MTT assay)", "excerpt": "Our clonally expanded system provided an excellent cellular model to precisely investigate the oncogenicity of strain-specific p53 amyloid conformations in vivo. We analyzed cell growth of the four p53 amyloid strains by examining cell cycle flow and counting doubling time (FIGS. 17a and 17b). […] In contrast to the toxic amyloids observed in neurodegenerative contexts, p53 amyloids appear to promote cell growth. Additionally, to assess the stress response, the four cell strains were challenged with spermidine and H2O2 (FIGS. 17c and 17d). Cell viability was impaired under all stress conditions. […] To further identify key pathophysiology pathways involved in tumorigenesis of p53 aggregates' gain-of-function, we performed a serial screen by western blotting and compared the expression of cancer-related proteins in the four strains. […] Additionally, a group of epigenetic regulators altered their expression in present of p53 aggregates. […] Together with the horizontal transmissibility shown in FIG. 16, the three endogenous p53 aggregates were able to switch into malignant cancer cells including activating EMT, increasing cancer stemness, and dramatically altering epigenetic regulators, and the strain-specific p53 amyloids can propagate oncogenic inheritance via a protein-based mechanism."}}, "note": "Where a SMILES comes first, the peptide text is derived from it. The star is where a group is joined. Cbz = O=C(OCc1ccccc1)*"}
{"smiles": "O=C(O[C@@H]1Cc2c(O)cc(O)cc2O[C@@H]1c1cc(O)c(O)c(O)c1)c1cc(O)c(O)c(O)c1", "note": "[EGCG]", "values": [{"measurement": "TDP-43-IIPLD aggregates, statistical analysis of dose dependence", "setting": "[1]", "value": "disassembled the formed TDP-43 misfolded aggregates in a dose-dependent manner"}, {"measurement": "assembly of TDP-43-IIPLD proteinaceous nucleating particles", "setting": "[1]; 50 μM", "value": "reduce TDP-43 proteinaceous nucleating particles"}, {"measurement": "correction of TDP-43 dysfunction on mRNA processing", "setting": "[2]", "value": "insufficient to correct TDP-43 dysfunction on mRNA processing"}, {"measurement": "TDP-43 species", "setting": "TDP-43 polymers", "value": "increased the level of the 130 kD TDP-43 instead of the high-order TDP-43 polymers"}]}
{"smiles": "OO", "note": "[H2O2]", "values": [{"measurement": "p53 aggregate formation", "setting": "[3]; H2O2 treatment", "value": "induced p53 aggregate formation"}, {"measurement": "cell viability", "setting": "four p53 strains; four p53 strains challenged with H2O2", "value": "impaired"}]}
{"smiles": "CC(C)C[C@@H](C=O)NC(=O)[C@H](CC(C)C)NC(=O)[C@H](CC(C)C)NC(=O)OCc1ccccc1", "note": "[MG132] (Cbz-Leu-Leu-Leu-aldehyde)", "values": [{"measurement": "form of p53 fibers", "setting": "[3]; 293T cells, MG132", "value": "converted the three types of p53 fibers into irregular inclusions"}, {"measurement": "p53 aggregates", "setting": "[3]; 293T cells, MG132", "value": "significantly increased p53 aggregates"}]}
{"smiles": "NCCCCNCCCN", "note": "[spermidine]", "values": [{"measurement": "cell viability", "setting": "four p53 strains; four p53 strains challenged with spermidine", "value": "impaired"}]}
